Assay results reported in US10017741B2, “Compositions and methods for obtaining enriched mesenchymal stem cell cultures” (StemCell Technologies Inc., priority 2013, dated 2018).
“Also recorded” adds a separate entry of the source.

Columns and labels:
[1] = tested on: mouse CB-derived cells (MSC colonies); assay: Mouse CB-derived CFU-F assay; type: cell-based; conditions: 14 days
Description: a. Mouse BM and CB-Derived CFU-F Assay • 1. […] Medium was removed cultures washed with 2 mL PBS. • 4. Cells were fixed by adding 2 mL methanol/well and incubated at room temperature for 5 minutes. • 5. Methanol was removed and plates allowed to air dry for 5 minutes. • 6. To each well, 2 mL Toluidine blue solution was added and incubated for 30 minutes at room temperature. • 7. Toluidine blue solution was removed and wells rinsed with water. • 8. Water was removed and plates allowed to dry. • 9. Colony formation was assessed by enumeration and colony size. Mouse CB-derived cells were isolated as described previously and CFU-F assays setup as described above. […] Cultures were then stained with Toluidine blue and colony formation and appearance assessed. Three independent assays CFU-F assays for both BM- and CB-MSC were setup as in Example 4a and 4b. […] These assays were maintained for 14 days without media change. At the end of day 14, cultures were fixed and stained with toluidine blue and the number of MSC colonies counted.

[2] = tested on: CB-derived cultures (CD45+/CD11b+ macrophages, Sca1+ monocytes); assay: Flow cytometry of CB-derived expansion cultures; type: cell-based, mouse
Description: c. Expansion of Human BM and Mouse BM and CB-Derived Cells Assay • 1. […] Cultures were allowed to grow for 10-14 days until adherent cells achieved 70 to 80% confluence. Mouse cultures were maintained under normal (5% CO2) or hypoxic conditions (5% CO2/5% O2) at 37 C in a cell culture incubator. Human cultures were maintained under 5% CO2 at 37 C in a humidified cell culture incubator. • 3. Adherent cells were passaged by releasing cultures from flask. Cultures were washed with 5 mL PBS and then 5 mL of 0.25% trypsin solution ([…] catalogue #07901) was added and the flasks incubated for 10 min at 37 C. To each flask, 5 mL complete medium was added to stop trypsin activity. • 4. Released cells were collected into a tube and centrifuged at 300×g for 5 minutes. • 5. Cells were resuspended in 2 mL of medium and counted using a hemocytometer. • 6. […] P1 cultures were incubated until they reached 70 to 80% confluence. • 8. Passaged cultures can be used at any time from P0 to P10 as needed for different applications.
d. Flow Cytometry Analysis • 1. Cultures of BM and CB-derived cells were trypsinized for 10 minutes and an equal volume of complete medium was added to cultures to stop trypsin activity • 2. Cell suspension was filtered through a 40 μm strainer, and cells counted using a hemocytometer • 3. Suspension was spun down at 300×g for 5 minutes. • 4. Supernatant was removed and cell pellet resuspended in FACS buffer (PBS with 2% FBS and 1 mM EDTA) • 5. A total of 1×10^5 cells in 300 μL FACS buffer was used for each flow cytometry analysis tube, including unstained, viability, compensation, and isotype controls. • 6. Cell suspensions were stained with fluorophore-labeled antibodies against CD45, CD11b, and Sca1, CD29, and viability dye. • 7. Cell suspensions were analyzed on a flow cytometer using compensation and isotype control to determine laser voltage and gating. • 8. Samples were gated on viable CD45^+ cells and 10,000 events per sample were collected. Alternatively, cells were gated on viable CD45^− cells and out of this gate the proportion of CD29+/Sca1^+ cells obtained.

[3] = tested on: mouse BM-MSC cultures; assay: Osteogenic and adipogenic differentiation of mouse BM-MSC; type: cell-based
Description: During the process of culture, expansion, or maintenance of MSCs, it is imperative that these cells maintain their functional properties so they can be used for specific downstream applications, including characterization by differentiation. […] BM-MSCs that were initially exposed to vehicle- or GW2580-containing media were plated at 3 different densities (FIG. 18A) in MesenCult Proliferation Medium and allowed to adhere to the plates overnight. Cultures were then differentiated for 14 days in MesenCult Osteogenic Medium, and the medium changed every 3 days. Osteogenic cultures were then fixed and stained for alkaline phosphates (ALP) activity (red areas) and mineralization (black areas). In control cultures ([…]), a modest differentiation into the osteogenic lineage was only observed when cultures were seeded at the highest density of 1.2×10^5 cells/cm^2. […] Cultures were then differentiated for 14 days into the adipogenic and osteogenic lineages (FIG. 18B).

[4] = tested on: mouse CB-MSC cultures; assay: Osteogenic and adipogenic differentiation of mouse CB-MSC; type: cell-based
[5] = tested on: mouse myeloid cells; conditions: at 700 nM; cited from earlier work
[6] = CB-MSC, assay 1, 1 uM GW2580, 1.0 × 10^5 cells plated
[7] = CB-MSC, assay 1, 1 uM GW2580, 2.5 × 10^5 cells plated
[8] = CB-MSC, assay 1, 1 uM GW2580, 5.0 × 10^4 cells plated
[9] = CB-MSC, assay 1, 1 uM GW2580, Sum of the three densities
[10] = CB-MSC, assay 2, 2.5 uM GW2580, 1.0 × 10^6 cells plated
[11] = CB-MSC, assay 2, 2.5 uM GW2580, 2.5 × 10^5 cells plated
[12] = CB-MSC, assay 2, 2.5 uM GW2580, 5.0 × 10^5 cells plated
[13] = CB-MSC, assay 2, 2.5 uM GW2580, Sum of the three densities
[14] = CB-MSC, assay 3, 2.5 uM GW2580, 1.0 × 10^6 cells plated
[15] = CB-MSC, assay 3, 2.5 uM GW2580, 2.5 × 10^5 cells plated
[16] = CB-MSC, assay 3, 2.5 uM GW2580, 5.0 × 10^5 cells plated
[17] = CB-MSC, assay 3, 2.5 uM GW2580, Sum of the three densities
[18] = CB, 1 μM P0-P1 then vehicle P2-P3, analysed at P3, adherent cells
[19] = CB, 1 μM P0-P1 then vehicle P2-P3, analysed at P3, non-adherent cells
[20] = CB, P4, DMSO P0-P2 then 1 μM GW2580 P3-P4, or P4 control cultures EasySep-enriched

Compound: COc1ccc(COc2ccc(Cc3cnc(N)nc3N)cc2OC)cc1 [GW2580, 5-(3-Methoxy-4-((4-methoxybenzyl)oxy)benzyl)pyrimidine-2,4-diamine]
- overall minimal increase in number of MSC colonies vs control ([1]; CB-MSC, 1 or 2.5 uM, three assays): ≥ 20%
- % increase in number of MSC colonies vs control [1, 6]: 51%
- Number of MSC colonies [1, 6]: 77
- % increase in number of MSC colonies vs control [1, 7]: 30%
- Number of MSC colonies [1, 7]: 133
- % increase in number of MSC colonies vs control [1, 8]: 70%
- Number of MSC colonies [1, 8]: 46
- % increase in number of MSC colonies vs control [1, 9]: 42%
- Number of MSC colonies [1, 9]: 256
- % increase in number of MSC colonies vs control [1, 10]: 84%
- Number of MSC colonies [1, 10]: 83
- % increase in number of MSC colonies vs control [1, 11]: 25%
- Number of MSC colonies [1, 11]: 15
- % increase in number of MSC colonies vs control [1, 12]: 9%
- Number of MSC colonies [1, 12]: 36
- % increase in number of MSC colonies vs control [1, 13]: 49%
- Number of MSC colonies [1, 13]: 134
- % increase in number of MSC colonies vs control [1, 14]: 84%
- Number of MSC colonies [1, 14]: 147
- % increase in number of MSC colonies vs control [1, 15]: 25%
- Number of MSC colonies [1, 15]: 35
- % increase in number of MSC colonies vs control [1, 16]: 29%
- Number of MSC colonies [1, 16]: 89
- % increase in number of MSC colonies vs control [1, 17]: 53%
- Number of MSC colonies [1, 17]: 271
- increase in colony number compared to control cultures ([1]; CB-derived, 1 μM): at least 24%
- MSC CFU-F appearance (colony size, macrophages) ([1]; CB-derived, 1 μM, Toluidine blue): bigger in size and have a much reduced number of macrophages; also recorded: larger, enriched MSC CFU-F that are mostly free of macrophages
- dose-response increase in CD45+/CD11b+/Sca1+ hematopoietic monocytes ([2]; CB, 1 μM): 18%
- number of CD45+/CD11b+/Sca1+ monocytes ([2]; CB, 1 μM (control 7%)): 25%
- number of CD45+ cells ([2]; CB, 1 μM (control 78%)): 64%
- CD45+/CD11b+ mature macrophages ([2]; CB, 1 μM (control 93%)): 75%
- CD45+/CD11b+/Sca1+ monocytes, of CD45+ cells [2, 18]: 2%
- CD45+/CD11b+/Sca1− mature macrophages, of CD45+ cells [2, 18]: 97%
- CD45+/CD11b+/Sca1+ monocytes, of CD45+ cells [2, 19]: < 1%
- CD45+/CD11b+/Sca1− mature macrophages, of CD45+ cells [2, 19]: 99%
- CD11b+/Sca1+ hematopoietic monocytes, of CD45+ cells ([2]; CB, 1 μM P0 to P2): 28%
- CD11b+/Sca1− mature macrophages, of CD45+ cells ([2]; CB, 1 μM P0 to P2): 62%
- overall reduction in CD45+ cells ([2]; CB, 1 μM P0 to P2): 15%
- reduction in CD45+/CD11b+/Sca1+ monocyte differentiation into mature macrophage (increase in Sca1+ fraction vs control) ([2]; CB, 1 μM P0 to P2): 22%
- CD11b+/Sca1+ hematopoietic monocytes, of CD45+ cells ([2]; CB, 1 μM P0 to P3): 20%
- CD11b+/Sca1− mature macrophages, of CD45+ cells ([2]; CB, 1 μM P0 to P3): 76%
- overall reduction in CD45+ cells ([2]; CB, 1 μM P0 to P3): 55%
- reduction in CD45+/CD11b+/Sca1+ monocyte differentiation into macrophage (increase in Sca1+ cells vs control) ([2]; CB, 1 μM P0 to P3): 8%
- reduction in CD45+/CD11b+/Sca1− mature macrophage differentiation ([2]; CB, 1 μM, at P3): 12%
- dose-response increase in CD45+/CD11b+/Sca1+ hematopoietic monocytes ([2]; CB, 5 μM): 32%
- number of CD45+/CD11b+/Sca1+ monocytes ([2]; CB, 5 μM (control 7%)): 39%
- number of CD45+ cells ([2]; CB, 5 μM (control 78%)): 36%
- CD45+/CD11b+ mature macrophages ([2]; CB, 5 μM (control 93%)): 60%
- dose-response increase in CD45+/CD11b+/Sca1+ hematopoietic monocytes ([2]; CB, 10 μM): 41%
- number of CD45+/CD11b+/Sca1+ monocytes ([2]; CB, 10 μM (control 7%)): 48%
- number of CD45+ cells ([2]; CB, 10 μM (control 78%)): 30%
- CD45+/CD11b+ mature macrophages ([2]; CB, 10 μM (control 93%)): 50%
- CD45+/CD11b+ mature macrophages, of total viable cells ([2]; CB, P1, 1 μM): 34%
- reduction in macrophages vs control ([2]; CB, P1, 1 μM): 50%
- CD11b+/Sca1+ monocytes, of CD45+ cells [2, 20]: about 75%
- CD11b+/Sca1− mature macrophages, of CD45+ cells [2, 20]: around 25%
- CD45+/CD11b+ mature macrophages, of viable cells ([2]; CB-derived cultures, 1 μM up to P2): < 1%
- osteogenic differentiation (ALP activity, mineralization) ([3]; BM-MSC, 1 uM for 2 passages, seeded at 4.0×10^4 cells/cm^2, 14 days): a significant and robust increase in osteogenic differentiation
- adipogenic and osteogenic differentiation (Oil Red O, ALP/mineralization) ([3]; BM-MSC, 2.5 uM for 2 passages, plated at 4.0×10^4 cells/cm^2, 14 days): substantial adipogenic and osteogenic differentiation
- differentiation into osteogenic and adipogenic lineages vs control cultures ([3]; mouse BM-MSC exposed to GW2580 during expansion): stronger and more robust differentiation
- adipogenic and osteogenic differentiation (Oil Red O, ALP/mineralization) ([4]; CB-MSC, 2.5 uM for 2 passages, plated at 4.0×10^4 cells/cm^2, 14 days): substantial adipogenic and osteogenic differentiation
- differentiation into osteogenic and adipogenic lineages vs control cultures ([4]; mouse CB-MSC exposed to GW2580 during expansion): stronger and more robust differentiation
- inhibition of CSF-1-dependent growth of mouse myeloid cells [5]: completely inhibited
